Earlier results in article PMC7400577 (Scientific Reports, 2020).

Key:
[1] = target: T1, hGAT3 (Homo sapiens, UniProt P48066); conditions: [3H]GABA uptake, recombinant hGAT3; adapted from Al-Khawaja et al.; cited from earlier work
T1 construct: expressed in transfected cells
T1 sequence (P48066 1-632): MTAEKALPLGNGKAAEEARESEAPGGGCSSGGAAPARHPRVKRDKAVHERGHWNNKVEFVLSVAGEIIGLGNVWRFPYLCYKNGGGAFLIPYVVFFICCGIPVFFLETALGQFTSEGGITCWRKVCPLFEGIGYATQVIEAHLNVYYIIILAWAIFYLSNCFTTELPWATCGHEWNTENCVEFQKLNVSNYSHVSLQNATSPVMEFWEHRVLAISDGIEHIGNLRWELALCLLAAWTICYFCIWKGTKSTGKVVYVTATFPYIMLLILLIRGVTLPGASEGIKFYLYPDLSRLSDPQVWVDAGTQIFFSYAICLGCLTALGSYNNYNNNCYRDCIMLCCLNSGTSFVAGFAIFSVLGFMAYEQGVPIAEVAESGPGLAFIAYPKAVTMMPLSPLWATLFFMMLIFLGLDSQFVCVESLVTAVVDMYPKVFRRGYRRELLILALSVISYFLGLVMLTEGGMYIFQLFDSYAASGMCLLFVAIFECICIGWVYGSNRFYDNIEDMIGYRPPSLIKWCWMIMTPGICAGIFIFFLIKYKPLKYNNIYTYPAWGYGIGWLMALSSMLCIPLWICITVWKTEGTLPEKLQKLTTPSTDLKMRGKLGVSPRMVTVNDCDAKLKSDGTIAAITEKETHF

[2] = target: T2, hBGT1 (Homo sapiens, UniProt P48065); conditions: previously demonstrated; cited from earlier work
T2 construct: expressed in transfected cells
T2 sequence (P48065 1-614): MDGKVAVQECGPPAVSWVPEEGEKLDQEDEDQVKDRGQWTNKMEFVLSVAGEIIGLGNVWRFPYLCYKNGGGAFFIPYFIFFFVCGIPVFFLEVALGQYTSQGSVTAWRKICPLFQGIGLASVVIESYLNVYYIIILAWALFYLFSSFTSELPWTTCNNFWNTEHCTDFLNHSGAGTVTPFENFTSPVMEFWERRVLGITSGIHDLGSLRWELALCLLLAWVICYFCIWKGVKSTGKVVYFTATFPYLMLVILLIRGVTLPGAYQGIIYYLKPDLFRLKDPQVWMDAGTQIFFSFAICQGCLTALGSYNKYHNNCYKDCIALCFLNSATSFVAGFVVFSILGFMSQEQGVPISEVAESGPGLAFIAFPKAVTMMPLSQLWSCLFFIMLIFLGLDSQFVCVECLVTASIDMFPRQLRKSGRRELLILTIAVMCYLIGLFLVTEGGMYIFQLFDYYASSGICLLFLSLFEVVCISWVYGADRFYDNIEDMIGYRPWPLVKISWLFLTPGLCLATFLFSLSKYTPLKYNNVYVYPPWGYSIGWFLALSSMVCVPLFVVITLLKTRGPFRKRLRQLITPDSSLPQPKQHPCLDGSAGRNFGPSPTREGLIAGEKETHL

[3] = target: T3, hGAT2 (Homo sapiens, UniProt Q9NSD5); conditions: [3H]GABA uptake, recombinant hGAT2; adapted from Al-Khawaja et al.; cited from earlier work
T3 construct: expressed in transfected cells
T3 sequence (Q9NSD5 1-602): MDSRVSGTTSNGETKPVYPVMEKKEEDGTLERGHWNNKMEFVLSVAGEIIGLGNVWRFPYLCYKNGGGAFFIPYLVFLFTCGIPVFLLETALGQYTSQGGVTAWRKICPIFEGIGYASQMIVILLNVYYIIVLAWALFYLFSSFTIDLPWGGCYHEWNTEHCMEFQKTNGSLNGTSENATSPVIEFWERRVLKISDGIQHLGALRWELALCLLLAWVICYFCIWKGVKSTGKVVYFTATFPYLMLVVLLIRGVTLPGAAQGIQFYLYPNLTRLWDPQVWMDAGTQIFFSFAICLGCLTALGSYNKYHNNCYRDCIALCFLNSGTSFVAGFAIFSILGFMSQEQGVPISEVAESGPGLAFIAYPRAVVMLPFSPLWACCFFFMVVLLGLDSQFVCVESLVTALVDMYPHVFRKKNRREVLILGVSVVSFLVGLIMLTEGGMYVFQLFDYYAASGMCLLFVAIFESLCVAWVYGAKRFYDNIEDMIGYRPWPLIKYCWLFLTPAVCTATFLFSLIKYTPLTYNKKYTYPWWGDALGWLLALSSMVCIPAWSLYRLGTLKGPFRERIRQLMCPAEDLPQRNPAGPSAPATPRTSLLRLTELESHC

NC1=NCC(C(=O)O)CN1 (centres unmarked) [ATPCA, 2-amino-1,4,5,6-tetrahydropyrimidine-5-carboxylic acid, reference compound]
IC50 [1]: 99 µM | pIC50 ± S.E.M. hGAT3 [1]: 4.00 ± 0.03 | substrate character at hBGT1 in FMP assay [2]: substrate for hBGT1 | IC50 [3]: 41 µM | pIC50 ± S.E.M. hGAT2 [3]: 4.39 ± 0.09
